Laboratory results published in ChEMBL document CHEMBL3885861, “Open TG-GATES”.

Organism: Rattus norvegicus
Assay: Open TG-GATES - Regimen: Single
Format: toxicity, organism-based, Sprague-Dawley
Parameters: regimen Single, gender Male, age 6 weeks
Settings: in vivo, po, 1000 mg/kg, route gavage, dose level High; for APTT / Bas / Eos / Fbg / Hb / Ht / Lym / MCH / MCHC / MCV / Mono / Neu / PT / Plat / RBC / Ret / WBC: tissue Blood; for KIDNEY_L / KIDNEY_R / KIDNEY_TOTAL: tissue Kidney; for LIVER: tissue Liver; for ALP / ALT / AST / BUN / CRE / Ca / Cl / DBIL / GLC / IP / K / LDH / Na / PL / RALB / TBIL / TC / TG / TP / gamma-GTP: tissue Plasma

`COC(=O)C1=C(C)NC(C)=C(C(=O)OC)C1c1ccccc1[N+](=O)[O-]` [NIFEDIPINE] was tested, and the TERMINAL_BW (3 h) was 207.9 g, the APTT (3 h) was 16.6 s and the Bas (3 h) was 0%. The Eos (3 h) was 1%, the Fbg (3 h) was 285.2 mg/dL and the Hb (3 h) was 13 g/dL. For the same compound, the Ht (3 h) was 39.9%, the Lym (3 h) was 69.8% and the MCH (3 h) was 20.8 pg. The MCHC (3 h) was 32.6%, the MCV (3 h) was 63.8 fL and the Mono (3 h) was 4.6%. The Neu (3 h) was 24.2%, the PT (3 h) was 14.9 s and the Plat (3 h) was 122.2 x10_4/uL. It also gave an RBC (3 h) of 626 x10_4/ul, a Ret (3 h) of 9.7% and a WBC (3 h) of 108.1 x10_2/uL. The KIDNEY_L (3 h) was 0.9 g, the KIDNEY_R (3 h) was 0.9 g and the KIDNEY_TOTAL (3 h) was 1.9 g. The LIVER (3 h) was 8.4 g, the ALP (3 h) was 1381.2 IU/L and the ALT (3 h) was 51 IU/L. For the same compound, the AST (3 h) was 74.8 IU/L, the BUN (3 h) was 26.2 mg/dL and the CRE (3 h) was 0.2 mg/dL. The Ca (3 h) was 11.8 mg/dL, the Cl (3 h) was 97.2 meq/L and the DBIL (3 h) was 0.008 mg/dL. It also gave a GLC (3 h) of 260.8 mg/dL, an IP (3 h) of 9.2 mg/dL and a K (3 h) of 5 meq/L. For the same compound, the LDH (3 h) was 99.4 IU/L, the Na (3 h) was 134.8 meq/L and the PL (3 h) was 141.4 mg/dL. It also gave an RALB (3 h) of 2.5 g/dL, a TBIL (3 h) of 0.036 mg/dL and a TC (3 h) of 81.6 mg/dL. The TG (3 h) was 46.4 mg/dL, the TP (3 h) was 5.2 g/dL and the gamma-GTP (3 h) was 1.6 IU/L. The TERMINAL_BW (6 h) was 205.1 g, the APTT (6 h) was 16.5 s and the Bas (6 h) was 0.2%. For the same compound, the Eos (6 h) was 0.4%, the Fbg (6 h) was 282.6 mg/dL and the Hb (6 h) was 13 g/dL. It also gave a Ht (6 h) of 39.6%, a Lym (6 h) of 77% and an MCH (6 h) of 20.6 pg. The MCHC (6 h) was 32.8%, the MCV (6 h) was 62.7 fL and the Mono (6 h) was 3.6%. The Neu (6 h) was 18%, the PT (6 h) was 14.9 s and the Plat (6 h) was 123.3 x10_4/uL. The RBC (6 h) was 632.4 x10_4/ul, the Ret (6 h) was 9.2% and the WBC (6 h) was 92.1 x10_2/uL. The KIDNEY_L (6 h) was 0.9 g, the KIDNEY_R (6 h) was 0.9 g and the KIDNEY_TOTAL (6 h) was 1.9 g. For the same compound, the LIVER (6 h) was 7.3 g, the ALP (6 h) was 1242.8 IU/L and the ALT (6 h) was 50.6 IU/L. It also gave an AST (6 h) of 83 IU/L, a BUN (6 h) of 40.2 mg/dL and a CRE (6 h) of 0.2 mg/dL. It also gave a Ca (6 h) of 11 mg/dL, a Cl (6 h) of 97.2 meq/L and a DBIL (6 h) of 0.008 mg/dL. The GLC (6 h) was 229.6 mg/dL, the IP (6 h) was 11 mg/dL and the K (6 h) was 5 meq/L. For the same compound, the LDH (6 h) was 81 IU/L, the Na (6 h) was 136.4 meq/L and the PL (6 h) was 148.2 mg/dL. For the same compound, the RALB (6 h) was 2.6 g/dL, the TBIL (6 h) was 0.052 mg/dL and the TC (6 h) was 90.2 mg/dL. It also gave a TG (6 h) of 16.4 mg/dL, a TP (6 h) of 5.4 g/dL and a gamma-GTP (6 h) of 1 IU/L. It also gave a TERMINAL_BW (9 h) of 206.6 g, an APTT (9 h) of 16.7 s and a Bas (9 h) of 0.4%. It also gave an Eos (9 h) of 0.4%, a Fbg (9 h) of 287 mg/dL and a Hb (9 h) of 13.2 g/dL. For the same compound, the Ht (9 h) was 39.8%, the Lym (9 h) was 74% and the MCH (9 h) was 20.8 pg. It also gave an MCHC (9 h) of 33.3%, an MCV (9 h) of 62.5 fL and a Mono (9 h) of 4.8%. For the same compound, the Neu (9 h) was 19.2%, the PT (9 h) was 14.6 s and the Plat (9 h) was 123.6 x10_4/uL. It also gave an RBC (9 h) of 637 x10_4/ul, a Ret (9 h) of 9.7% and a WBC (9 h) of 96.3 x10_2/uL. The KIDNEY_L (9 h) was 0.9 g, the KIDNEY_R (9 h) was 0.9 g and the KIDNEY_TOTAL (9 h) was 1.7 g. It also gave an LIVER (9 h) of 7.1 g, an ALP (9 h) of 1341 IU/L and an AST (9 h) of 75.2 IU/L. The BUN (9 h) was 41.8 mg/dL, the CRE (9 h) was 0.2 mg/dL and the Ca (9 h) was 10.8 mg/dL. For the same compound, the Cl (9 h) was 96.4 meq/L, the DBIL (9 h) was 0.008 mg/dL and the GLC (9 h) was 217.4 mg/dL. For the same compound, the IP (9 h) was 11.9 mg/dL, the K (9 h) was 5.3 meq/L and the LDH (9 h) was 85 IU/L. It also gave a Na (9 h) of 134.6 meq/L, a PL (9 h) of 152.4 mg/dL and an RALB (9 h) of 2.6 g/dL. The TBIL (9 h) was 0.052 mg/dL, the TC (9 h) was 90.8 mg/dL and the TG (9 h) was 22.2 mg/dL. For the same compound, the TP (9 h) was 5.5 g/dL, the gamma-GTP (9 h) was 1.4 IU/L and the TERMINAL_BW (24 h) was 197.1 g. It also gave an APTT (24 h) of 17.4 s, a Bas (24 h) of 0.2% and an Eos (24 h) of 0.8%. For the same compound, the Fbg (24 h) was 374 mg/dL, the Hb (24 h) was 13.1 g/dL and the Ht (24 h) was 39.6%. For the same compound, the Lym (24 h) was 72.8%, the MCH (24 h) was 20.9 pg and the MCHC (24 h) was 33.1%. For the same compound, the MCV (24 h) was 63.3 fL, the Mono (24 h) was 3.6% and the Neu (24 h) was 22%. For the same compound, the PT (24 h) was 13.7 s, the Plat (24 h) was 142.3 x10_4/uL and the RBC (24 h) was 625.8 x10_4/ul. It also gave a Ret (24 h) of 9.7%, a WBC (24 h) of 99.5 x10_2/uL and a KIDNEY_L (24 h) of 0.8 g. For the same compound, the KIDNEY_R (24 h) was 0.9 g, the KIDNEY_TOTAL (24 h) was 1.7 g and the LIVER (24 h) was 6.9 g. It also gave an ALP (24 h) of 1549.8 IU/L, an ALT (24 h) of 40.6 IU/L and an AST (24 h) of 67.8 IU/L. The BUN (24 h) was 10.8 mg/dL, the CRE (24 h) was 0.2 mg/dL and the Ca (24 h) was 10.4 mg/dL. The Cl (24 h) was 106 meq/L, the DBIL (24 h) was 0.012 mg/dL and the GLC (24 h) was 167 mg/dL. It also gave an IP (24 h) of 8.6 mg/dL, a K (24 h) of 3.8 meq/L and an LDH (24 h) of 78.2 IU/L. It also gave a Na (24 h) of 143 meq/L, a PL (24 h) of 126.4 mg/dL and an RALB (24 h) of 2.9 g/dL. For the same compound, the TBIL (24 h) was 0.054 mg/dL, the TC (24 h) was 78 mg/dL and the TG (24 h) was 27 mg/dL. It also gave a TP (24 h) of 6.1 g/dL and a gamma-GTP (24 h) of 1 IU/L.
